We go through 12 compounds from US10980754B2, “Anti-fungal compounds” (SAINT LOUIS UNIVERSITY, priority 2016, dated 2021).

Converted amounts (≈) assume the structure as drawn. Where only a bound is given, the exact number is not on record here.

What is called MIC80 is an inhibitory concentration at the 80% level, which refers to growth in some studies and to a panel of isolates in others. Read a low MIC80 as higher susceptibility. As a reminder, the MIC is the smallest concentration in the dilution series that meets the test's criterion for growth inhibition. For orientation: CC50 means the concentration at which the toxic effect on the cells reaches its halfway point. High values mean better tolerance by the cells, low ones harm at low concentration.

The subject of one data set is C. neoformans. The experiment in a line: Fungicidal assay. In kind it is cell-based. The following applies: 48 hours exposure at 2×, 4× and 8× the MIC, spotted, 30° C. for 2 days. The procedure: To test for fungicidal activity, aliquots of cells were removed after 48 hours of growth in the presence of test compounds at 2×, 4×, and 8× the respective MICs and spotted them on YPD plates. The plates were incubated at 30° C. for 2 days and checked for growth. Growth of cells treated with test compounds was compared to FLC-treated cells, which is known to be fungistatic and to AMB-treated cells, which is known to be fungicidal (Klepser, et al., 1998; Mesa-Arango, et al., 2014).
compounds #54 and #284 were evaluated for fungicidal versus fungistatic activity. This analysis was done in a qualitative assay in parallel with FLC, which is known to be fungistatic (Klepser, et al., 1998) and AMB, which is known to be fungicidal (Mesa-Arango, et al., 2014). The MICs were 3 μM (0.9 μg/mL), 1.5 μM (1.4 μg/mL), 12 μM and 0.31 μM for FLC, AMB, #54 and #284 respectively. (FIGS. 8A & 8B).

For data set [1], the system named is C. neoformans var grubii, KN99. The experiment in a line: Inhibition of C. neoformans growth, limiting dilution assay (MIC). The following applies: for MIC80: KN99α, minimal concentration inhibiting 80% of growth relative to vehicle; for inhibition of C. neoformans growth: YNB-02+1% DMSO at 35° C., at 15 and 60 μM. It is filed as cell-based. The procedure: Strains and media. All inhibition assays were performed with C. neoformans var grubii, KN99 (serotype A, MATα; kindly provided by Jennifer Lodge). Two clinical strains of C. neoformans var grubii, serotype A, were kindly provided by Tamara Doering and Andre Spec. […] Each assay was done in triplicate and all values are the average of two or more independent assays. The data are presented as the average cell density as a percent of DMSO-only treated cells. […] However, these conditions are unlike conditions encountered by C. neoformans in mammalian infections, where nutrients are limited, and the pH and temperature are higher than in YPD media. The cryptococcal stress response to low glucose and high pH and temperature may alter its susceptibility to the inhibitors. It is also possible that the enzymes targeted by the inhibitors may render the cell temperature sensitive when inhibited. To better mimic growth in mammals, growth was tested without shaking in nutrient-limited media at 35° C. […] However, as the nutrient-limited media and higher temperature is more similar to mammalian cell growth conditions, these conditions were used for all further assays. […] All values were measured at least two times in independent experiments and the average MIC is reported.

Data set [2] deals with KN99α cells. The experiment in a line: Growth inhibition in YPD+1% DMSO at 25° C. It is filed as cell-based, C. neoformans. The following applies: at 60 μM. The procedure: FIGS. 5A & 5B. Inhibition of KN99α cells by β-thujaplicinol and β-thujaplicin under conditions (FIG. 5A) YPD at 25° C. and (FIG. 5B) YNB-02 at 35° C.
An assay was developed that could cheaply and reproducibly measure inhibition of C. neoformans growth using a 96-well format. C. neoformans growth was initially tested in YPD versus YPD+1% DMSO at 25° C. with shaking for 24 and 48 hours. […] However, these conditions are unlike conditions encountered by C. neoformans in mammalian infections, where nutrients are limited, and the pH and temperature are higher than in YPD media. The cryptococcal stress response to low glucose and high pH and temperature may alter its susceptibility to the inhibitors. It is also possible that the enzymes targeted by the inhibitors may render the cell temperature sensitive when inhibited. To better mimic growth in mammals, growth was tested without shaking in nutrient-limited media at 35° C. First, the cell culture media, RPMI-1640+0.4% glucose+1% DMSO (Sigma) as defined by National Committee for Clinical Laboratory Standards (NCCLS) was tested for anti-fungal susceptibility testing. However, the cells grew very poorly under these conditions. […] (FIG. 5A). However, as the nutrient-limited media and higher temperature is more similar to mammalian cell growth conditions, these conditions were used for all further assays.

A short description of data set [3]: Cytotoxicity in hepatoma cells (MTS). The following applies: human, HepDES19 cells, CC50, HepDES19 cells, 72 hours, MTS. The procedure:
(§1) HepDES19 cells (1.0×10^4 cells per well) were seeded in 96-well plates and incubated in DMEM with 10% fetal bovine serum (FBS) plus 1% penicillin and streptomycin, 1% nonessential amino acids, and 1% glutamine. The compounds were diluted in the medium at concentrations ranging from 0.78 to 100 μM plus 1% DMSO and added to the cells 48 hours after plating, with each concentration tested in triplicate. Cells were incubated with the compound for 72 hours and cytotoxicity was measured using a mitochondrial metabolic assay with MTS (Promega). The data were transformed to log[inhibitor] and fit to a 4-variable slope curve using GraphPad Prism (v6, www.graphpad.com).
(§2) Three days later, the MTS reagent was added for 90 minutes prior to terminating the incubation period and reading the OD480.

The subject of a further data set is HepDES19 cells. The data set can be described thus: Cytotoxicity in hepatoma cells (MTS). The conditions noted are these: 72 hours, MTS. The procedure: as §1, §2
The subject of data set [4] is clinical strains of C. neoformans var grubii, serotype A. The experiment in a line: MIC in two independent clinical strains. It is filed as cell-based. The following applies: Cryptococcus neoformans. The procedure:
Strains and media. All inhibition assays were performed with C. neoformans var grubii, KN99 (serotype A, MATα; kindly provided by Jennifer Lodge). Two clinical strains of C. neoformans var grubii, serotype A, were kindly provided by Tamara Doering and Andre Spec. […] Cells were incubated without shaking for 48 hours at 35° C. and cell density was measured at […]. […] Each assay was done in triplicate and all values are the average of two or more independent assays. The data are presented as the average cell density as a percent of DMSO-only treated cells. MICs are reported as the minimal concentration needed to inhibit 80% of C. neoformans growth relative to vehicle-treated controls. Another thirty-seven of the molecules are αHTs (FIG. 4), which have a third contiguous oxygen atom on the troponoid ring.

For data set [5], the system named is C. neoformans var grubii, KN99. The data set can be described thus: Synergy (checkerboard) assay with Fluconazole or Amphotericin B. In kind it is cell-based. The following applies: in combination with either FLC or AMB.
Experimental: Each assay was performed in triplicate and all values are the average of two or more independent assays. The fractional inhibitory concentration index (FICI) model is expressed as ΣFIC=FICA+FICB=MICA′/MICA+MICB′/MICB, where MICA, and MICB are the MIC values of agents A and B used alone and MICA′ and MICB′ are the MICs of agents A and B used in combination.
The test system of data set [6] is KN99α cells. The data set can be described thus: Inhibition under capsule-inducing conditions (MIC). In kind it is cell-based. The conditions noted are these: Cryptococcus neoformans; YNB-02+1% DMSO, 37° C. with 5% CO2, 48 hours. The procedure:
KN99α cells were grown overnight in YPD at 30° C. with shaking. […] Capsule was visualized using bright-field microscopy as a halo surrounding the yeast cell through India ink exclusion. The screening was conducted in the nutrient-limited media YNB-02 at 35° C. to mimic some aspects of the growth conditions in humans. […] The untreated cells grown in YNB-02 were able to elaborate the capsule (FIG. 7D) compared to cells grown overnight in YPD at 30° C. (FIG. 7C).

A further data set relates to Wild-type KN99α. The experiment in a line: Screening of 1-Hydroxy-1,8-naphthyridin-2(1H)-one (HNO) compounds for growth inhibition. The conditions noted are these: Cryptococcus neoformans; growth inhibited >80%. It is filed as cell-based, C. neoformans. The procedure: FIG. 1. Results from screening 8 napthyridinone derivatives. Wild-type KN99α at a starting density of 0.0005 was treated with the compounds at 4 μM, 15 μM, and 60 μM in nutrient-limiting media (YNB, pH 7)+1% DMSO at 35° C. for 48 hours. Bars represent the average cell density of at least three replicates as percent of untreated cells.
Eight compounds in the 1-Hydroxy-1,8-naphthyridin-2(1H)-one (HNO) chemical family were also tested. Three compounds, #149, #153 and #154, inhibited growth of C. neoformans >80% with MICs of ˜10 μM, ˜4 μM and ˜20 μM respectively.

In data set [7] the test system is KN99α cells. The experiment in a line: MIC assays of hydrolysis products of #284 and p-benzoic acid. The conditions noted are these: dilution series 0.19-50 μM, 48 hours at 35° C. In kind it is cell-based, C. neoformans. On the procedure: FIG. 6. […] Values are mean±standard deviation from three replicates.
The solution was mixed by vortexing until a prominent color change (pale yellow to dark orange) was apparent. This reaction was performed in triplicate. One aliquot of the reaction mixture was stored at room temperature, one at 35° C., and one at 40° C. After 24 hours, the reaction mixtures were neutralized with HCl.
This would release a tropothione, possibly in multiple oxidation states, as well as p-benzoic acid, any of which could potentially act as inhibitors.

The mark [8] stands for this setting: Cryptococcus neoformans, YNB-02+1% DMSO, 35° C., 48 hours.
Setting [9] is: YNB-02+1% DMSO, 35° C., 48 hours.
[10] abbreviates: Cryptococcus neoformans, 48 h, measured alone, 80% of cells inhibited relative to vehicle, run with synergy and fungicidal assays.

For the compound `C[C@@H]1[C@H](O)[C@@H](C)/C=C/C=C/C=C/C=C/C=C/C=C/C=C/[C@H](O[C@@H]2O[C@H](C)[C@@H](O)[C@H](N)[C@@H]2O)C[C@@H]2O[C@](O)(C[C@@H](O)C[C@@H](O)[C@H](O)CC[C@@H](O)C[C@@H](O)CC(=O)O[C@H]1C)C[C@H](O)[C@H]2C(=O)O` [AMB, Amphotericin B], in the data set on C. neoformans, the “cell growth on YPD plates after drug exposure” value was “no cell growth”.

Consider `CC(C)c1ccc(O)c(=O)c(O)c1` [Compound 46, β-thujaplicinol], for which, in data set [1] (setting [8]), the MIC80 was 8 µM (≈ 1.44 µg/mL) and the minimum inhibitory concentration (MIC) was ≤ 15 µM. In addition, in [1], the “inhibition of C. neoformans growth” value was “some inhibition”. In the data set on KN99α cells [2], the “inhibition of C. neoformans growth” value was “almost completely inhibited”. The compound also yielded a CC50 at 72 h in data set [3] of 23 µM.

On to `CC(C)c1cccc(=O)c(O)c1` [Compound 47, β-thujaplicin], for which, in data set [1] (setting [8]), the MIC80 is 21 µM (≈ 3.45 µg/mL). The “inhibition of C. neoformans growth” value in data set [1] is “some inhibition”; with KN99α cells [2] it was “almost completely inhibited”. This compound also had a CC50 at 72 h in [3] of 66.5 µM.

As for `O=Nc1ccc(O)c(=O)cc1` [Compound 50, 5-nitrosotropolone], the MIC80 in [1] (setting [9]) is listed as 24 µM (≈ 3.63 µg/mL). This compound displayed a CC50 in the data set with HepDES19 cells of 17.5 µM.

As for `O=c1ccccc(Br)c1O` [Compound 54, 3-bromotropolone], the MIC in data set [1] (setting [10]) is 12 µM; in data set [4], 6 to 12 µM (≈ 1.21 to 2.41 µg/mL); against KN99α cells [6], 6 to 12 µM (≈ 1.21 to 2.41 µg/mL). The MIC80 in [1] (setting [8]) stood at 7 µM (≈ 1.41 µg/mL). The same compound displayed a half-maximal cytotoxic concentration (CC50) at 72 h in data set [3] of 95 µM. In addition, the FIC index in data set [5] is given as 2. Also, the FIC value in [5] was 1.

Regarding `O=c1cc(Cc2ccc(Br)cc2)c2cccnc2n1O` [Compound 149], the minimal inhibitory concentration (MIC) against Wild-type KN99α is ~10 µM (≈ 3.31 µg/mL).

Take `NCc1cccc(-c2ccc(Cc3cc(=O)n(O)c4ncccc34)cc2)c1` [Compound 153]: the MIC against Wild-type KN99α was ~4 µM (≈ 1.43 µg/mL).

As to `O=c1cc(-c2ccccc2)c2cccnc2n1O` [Compound 154], the minimum inhibitory concentration (MIC) against Wild-type KN99α was ~20 µM (≈ 4.76 µg/mL).

In turn, `O=C(Oc1cccccc1=O)c1ccccc1Cl` [Compound 282] had an MIC80 in data set [1] (setting [8]) of 36 µM (≈ 9.38 µg/mL). The compound further came in with a CC50 in the data set on HepDES19 cells of 96.5 µM.

In the case of `OC(Cn1cncn1)(Cn1cncn1)c1ccc(F)cc1F` [FLC, Fluconazole, reference compound], the MIC in [1] (setting [10]) turned out to be 3 µM; in [1] (Cryptococcus neoformans, measured alone, 80% of cells inhibited relative to vehicle, run with synergy and fungicidal assays), 0.9 µg/mL. In addition, in the data set on C. neoformans, the “cell growth on YPD plates after drug exposure” value is recorded as “Significant cell growth”.

Purpurogallin [Compound 195] came in with an MIC80 in data set [1] (setting [9]) of 50 µM. Also, the “activity against C. neoformans (in words)” value in [1] (MIC assay) is “largely ineffective”. Also, the 50% cytotoxic concentration (CC50) in the data set with HepDES19 cells turned out to be 92 µM.

In the case of p-benzoic acid, in the data set with KN99α cells [7], the MIC is > 50 µM.
